These results are taken from patent US20210300936A1, “PYRAZOLOTRIAZOLOPYRIMIDINE DERIVATIVES AS A2A RECEPTOR ANTAGONIST” (BEIGENE, LTD., priority 2018, published 2021).

Data set [1] has as its target human A2A receptor (A2AR) (Homo sapiens, UniProt P29274). In words: Luciferase reporter assay (HEK293-A2AR-luc2p/CRE/Hygro cells, 3 nM CGS21680). The data set is classed as cell-based. The following applies: 3 nM CGS21680, 5 h incubation. In a few lines:
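Antagonist (0.1–10000 nM) and 3 nM CGS21680 were co-added for 5 h to stable HEK293-A2AR-luc2p/CRE cells, 18 h after seeding in 1% FBS medium containing adenosine deaminase. Luminescence was normalized to agonist alone (100%), and IC50 came from the dose–inhibition curve.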
(Reporter assays use an easily measured gene product as a stand-in for the process of interest.)

Data set [2] has as its target T1, human adenosine receptor A1 (A1R) (Homo sapiens, UniProt P30542).
T1 construct: host or cells: CHO cells (membrane homogenates)
T1 sequence (P30542 1-326): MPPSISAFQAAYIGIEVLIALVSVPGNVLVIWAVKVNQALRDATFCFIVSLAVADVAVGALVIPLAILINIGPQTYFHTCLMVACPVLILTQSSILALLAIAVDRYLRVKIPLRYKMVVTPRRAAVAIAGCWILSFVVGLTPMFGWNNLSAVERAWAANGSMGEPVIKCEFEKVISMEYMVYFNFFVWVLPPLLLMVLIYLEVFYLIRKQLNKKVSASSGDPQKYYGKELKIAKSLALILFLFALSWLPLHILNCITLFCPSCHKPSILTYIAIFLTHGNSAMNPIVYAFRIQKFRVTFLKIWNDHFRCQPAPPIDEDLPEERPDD
Nature of the data set: Adenosine receptor binding assay, radioligand competitive binding, [3H]DPCPX. The following applies: membrane homogenates from CHO cells transfected with A1R, 1 nM [3H]DPCPX. On the procedure:
(§1) Binding affinity of test compounds to four human adenosine receptors, A1, A2A, A2B and A3 was determined in radioligand competitive binding assay (conducted by Cerep, France) using following protocols. For A1 receptor (A1R), membrane homogenates from CHO cells transfected with A1R were incubated for 60 min at 22° C. with 1 nM [3H]DPCPX in the absence or presence of the test compound in a buffer containing 50 mM Tris-HCl (pH 7.4), 5 mM MgCl2, 1 mM EDTA/Tris and 2 UI/mL ADA. For A2AR, membrane homogenates from HEK293 cells transfected with A2AR were incubated for 120 min at 22° C. with 6 nM [3H]CGS21680 in the absence or presence of the test compound in a buffer containing 50 mM Tris-HCl (pH 7.4), 10 mM MgCl2, and 2 UI/mL ADA. For A2B receptor (A2BR), membrane homogenates from HEK293 cells transfected with A2BR were incubated for 60 min at 22° C. with 5 nM [3H]CPX in the absence or presence of the test compound in a buffer containing 10 mM Hepes/Tris (pH 7), 1 mM MgCl2, and 1 mM EDTA. For A3 receptor (A3R), membrane homogenates from HEK293 cells transfected with A3R were incubated for 120 min at 22° C. with 0.15 nM [125I]AB-MECA in the absence or presence of the test compound in a buffer containing 50 mM Tris-HCl (pH 7.4), 5 mM MgCl2, 1 mM EDTA and 2 UI/mL ADA. Nonspecific binding was determined in the presence of unlabeled 1 μM DPCPX, 10 μM NECA, 100 μM NECA, and 1 μM IB-MECA in A1R, A2AR, A2BR, A3R binding assays, respectively. Following incubation, the samples are rapidly filtered and washed with ice-cold 50 mM Tris-HCl. Then filters are dried and counted for radioactivity in a scintillation counter (Topcount, Packard) using a scintillation cocktail (Microscint 0, Packard). Duplicate experiments were performed for each assay. The results are expressed as a percent inhibition of control radioligand specific binding.

Data set [3] has as its target T2, human adenosine receptor A2A (A2AR) (Homo sapiens, UniProt P29274).
T2 construct: host or cells: HEK293 cells (membrane homogenates)
In words: Adenosine receptor binding assay, radioligand competitive binding, [3H]CGS21680. To be noted: membrane homogenates from HEK293 cells transfected with A2AR, 6 nM [3H]CGS21680. On the procedure: as §1

A further data set is described as follows: Mouse BBB assay. The data set is classed as in vivo. To be noted: oral 10 mg/kg. The procedure:
Mice were acclimated for 1 week prior to use at 18-30 g body weight. Fasted mice were dosed orally at 10 mg/kg dose. At 1, 2 and 4 hours postdose, plasma samples from cardiac blood collected in tubes containing K2EDTA as the anticoagulant, and excised cerebral hemispheres were immediately frozen and stored at −80° C. until bioanalysis. Total concentrations of the compound were determined by LC-MS/MS. Brain homogenate concentrations were converted to brain concentrations for the calculations of brain-to-plasma ratios.

Like-named read-outs stand apart in the source and are kept apart here.

T2 sequence (P29274 whole entry): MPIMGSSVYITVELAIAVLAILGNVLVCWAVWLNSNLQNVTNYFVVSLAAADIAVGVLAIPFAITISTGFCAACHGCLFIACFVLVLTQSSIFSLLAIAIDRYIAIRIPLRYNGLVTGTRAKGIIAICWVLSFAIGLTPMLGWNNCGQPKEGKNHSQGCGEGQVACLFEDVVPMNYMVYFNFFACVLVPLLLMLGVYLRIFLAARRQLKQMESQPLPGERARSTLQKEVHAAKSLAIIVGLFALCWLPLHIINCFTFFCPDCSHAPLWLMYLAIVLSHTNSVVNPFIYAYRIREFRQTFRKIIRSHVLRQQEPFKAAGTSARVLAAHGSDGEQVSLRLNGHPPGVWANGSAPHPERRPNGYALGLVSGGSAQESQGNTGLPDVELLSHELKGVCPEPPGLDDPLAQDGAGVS
Sequence of human A2A receptor (A2AR) (P29274 whole entry): as above

For the molecule `CCCC(C(=O)N1CCN(c2ccc(OCCOC)cc2)CC1)n1ncc2c1nc(N)n1nc(-c3ccco3)nc21` (single isomer, unassigned) [Compound A5a, 2-(5-amino-2-(furan-2-yl)-7H-pyrazolo[4,3-e][1,2,4]triazolo[1,5-c]pyrimidin-7-yl)-1-(4-(4-(2-methoxyethoxy)phenyl)piperazin-1-yl)pentan-1-one], the IC50 (usually the midpoint of a concentration-inhibition curve) in data set [1] was 2.2 nM. Besides, the Ki (commonly a measure of affinity in units of concentration, obtained from inhibition or displacement) in data set [2] amounted to 160 nM; in data set [3], 1.7 nM. In addition, the concentration at 1 h is 5.1 ng/g in the data set “Mouse BBB assay” (brain, read-out: Brain) and 116 ng/mL in the data set “Mouse BBB assay” (plasma, read-out: Plasma).

Regarding `CCCC(C(=O)N1CCN(c2ccc(OCCOCCOC)cc2)CC1)n1ncc2c1nc(N)n1nc(-c3ccco3)nc21` (single isomer, unassigned) [Compound A6a, 2-(5-amino-2-(furan-2-yl)-7H-pyrazolo[4,3-e][1,2,4]triazolo[1,5-c]pyrimidin-7-yl)-1-(4-(4-(2-(2-methoxyethoxy)ethoxy)phenyl)piperazin-1-yl)pentan-1-one], in data set [1], the concentration for half-maximal inhibition (IC50) was 5 nM. The inhibitory constant (Ki) in data set [2] was 81 nM; in data set [3] it was 1.4 nM. Further, the concentration at 1 h stood at 4.2 ng/g in “Mouse BBB assay” (brain, read-out: Brain) and 173 ng/mL in “Mouse BBB assay” (plasma, read-out: Plasma).

For `CCCCC(C(=O)N1CCN(c2ccc(OCCOC)cc2)CC1)n1ncc2c1nc(N)n1nc(-c3ccco3)nc21` (single isomer, unassigned) [Compound A10a, 2-(5-amino-2-(furan-2-yl)-7H-pyrazolo[4,3-e][1,2,4]triazolo[1,5-c]pyrimidin-7-yl)-1-(4-(4-(2-methoxyethoxy)phenyl)piperazin-1-yl)hexan-1-one], the IC50 in data set [1] stood at 2.7 nM. The inhibition constant (Ki) came out at 120 nM in data set [2] and 2.3 nM in data set [3]. In addition, the concentration at 1 h in “Mouse BBB assay” (brain, read-out: Brain) was found to be 20 ng/g; in the data set “Mouse BBB assay” (plasma, read-out: Plasma), 471 ng/mL.

For `COCCOc1ccc(N2CCN(C(=O)C(c3ccccc3)n3ncc4c3nc(N)n3nc(-c5ccco5)nc43)CC2)cc1` (single isomer, unassigned) [Compound A13b], the half-maximal inhibitory concentration (IC50) in data set [1] was found to be 0.8 nM. For the same molecule, the Ki came to 42 nM in data set [2] and 0.92 nM in data set [3]. For the same molecule, the concentration at 1 h in the data set “Mouse BBB assay” (brain, read-out: Brain) is 54 ng/g; in the data set “Mouse BBB assay” (plasma, read-out: Plasma), 2440 ng/mL.

On to `COCCOc1ccc(N2CCN(C(=O)[C@@](C)(c3ccccc3)n3ncc4c3nc(N)n3nc(-c5ccco5)nc43)CC2)cc1` [Compound A63b, (R)-2-(5-amino-2-(furan-2-yl)-7H-pyrazolo[4,3-e][1,2,4]triazolo[1,5-c]pyrimidin-7-yl)-1-(4-(4-(2-methoxyethoxy)phenyl)piperazin-1-yl)-2-phenylpropan-1-one], for which it took 3.3 nM to reach half-maximal inhibition in data set [1] (IC50). The results for the Ki in data set [2] and in data set [3] were 153 nM and 1.5 nM, respectively.

The molecule `COCCOc1ccc(N2CCN(C(=O)Cn3ncc4c3nc(N)n3nc(-c5ccco5)nc43)CC2)cc1` [Compound D1, 2-(5-amino-2-(furan-2-yl)-7H-pyrazolo[4,3-e][1,2,4]triazolo[1,5-c]pyrimidin-7-yl)-1-(4-(4-(2-methoxyethoxy)phenyl)piperazin-1-yl)ethan-1-one] returned a half-inhibitory concentration (IC50) in data set [1] of 27 nM. The Ki amounted to 52 nM in data set [2] and 1.8 nM in data set [3].

For `COCCOc1ccc(N2CCN(C(=O)Cn3cc4c(nc(N)n5nc(-c6ccco6)nc45)n3)CC2)cc1` [Compound D2, 2-(5-amino-2-(furan-2-yl)-8H-pyrazolo[4,3-e][1,2,4]triazolo[1,5-c]pyrimidin-8-yl)-1-(4-(4-(2-methoxyethoxy)phenyl)piperazin-1-yl)ethan-1-one], it took 66.8 nM to reach half-maximal inhibition in data set [1] (IC50). For the same molecule, the inhibition constant Ki in data set [2] was found to be 0.81 nM; in data set [3], 2.8 nM.
